“Also recorded” adds a separate entry of the source. No end group written: not given here.
Key:
GPRC6A [1] = test system: GPRC6A; design: method as in 2 sources, ref 5 = [5]; PMID 15576628; doi:10.1124/mol.104.007559; 5. Wellendorph P Deorphanization of GPRC6A: a promiscuous L-alpha-amino acid receptor with preference for basic amino acids Molecular Pharmacology 2005 67 3 589 97 10.1124/mol.104.007559 15576628 ||| ref 6 = [6]; PMID 20947496; doi:10.1074/jbc.M110.158063; 6. Pi M Parrill AL Quarles LD GPRC6A mediates the non-genomic effects of steroids Journal of Biological Chemistry 2010 285 51 39953 64 10.1074/jbc.M110.158063 20947496 PMC3000977; conditions: cited from earlier work
GPRC6A [2] = experiment: Displacement of labelled ucOCN by SHBG141–161 on HEK-293 cells transfected with human Gprc6a; assay type: binding; conditions: for staining signal for labelled ucOCN vs ucOCN alone: 1 nM biotinylated ucOCN, 1 h room temperature, binding buffer pH 7.4, streptavidin-FITC, image analysis, mean of 3 independent experiments
Procedure: The binding of SHBG141–161 to GPRC6A was assessed by displacement experiments as previously described. To this aim, HEK-293 cells were transfected with human Gprc6a gene (Fig. 2C-I,II). The efficiency of the procedure was evaluated by real-time PCR, allowing the identification of a specific signal for Gprc6a gene only in transfected cells. Accordingly, a specific membrane signal was observed by immunostaining only in transfected cells. On these bases, HEK-293 cells transfected with Gprc6a gene were incubated with 1 nM labelled ucOCN and SHBG141–161 at the concentration of 0, 10 nM (10×) and 100 nM (100×) (Fig. 2D-I,II).
Human embryonic kidney (HEK)-293T cells (passage number 11 to 15) were obtained from the American Type Culture Collection (ATCC®-LGC Standards Sesto San Giovanni, MI, Italy) and cultivated in DMEM [ATCC®; RRID 30–2002) and supplemented with 10% fetal bovine serum (Euroclone, Milano, Italy; RRID: ECS0180L) and 1%antibiotic/antimycotic mixture in a humidified incubator at 37 °C with 5% CO2. Expression vector containing wild-type (WT) human GPRC6A cDNA (OriGene Technologies, Inc) was used according to manufacturer’s instruction. Briefly, cultured HEK- 293 T cells at 70% of confluence were transfected by FuGENE 6 (Roche Diagnostics) with 1 μg/well of GPRC6A-pcDNA and maintained for 48 hours, followed by overnight starving in serum-free condition to achieve quiescence. HEK-293T cells transfected with empty vector were used as negative controls. Starved cells were fixed in 1% paraformaldehyde and used for binding assessment by incubation for 1 h at room temperature with biotinylated ucOCN, with or without SHBG141–161 in ice-cold-binding buffer (50 mM Tris-HCl [pH 7.4], 10 mM MgCl2, 0.1 mM EDTA, and 0.1% BSA) according to the different experimental conditions used. After extensive washing in cold PBS, samples were incubated with streptavidin-Fluorescein isothiocyanate (FITC) (dilution 1:200; Sigma-Aldrich; RRID: S3762). Evaluation of GPRC6A expression by immunofluorescence was performed as described for β-TC6 (see below). Computer assisted image analysis was performed by the ImageJ image analysis software, powered by routines specifically developed by our group as previously described[43],[44]. […]

MA-10 cells = experiment: Testosterone (T) release from Leydig MA-10 cells (GPRC6A-mediated); assay type: cell-based, Mouse; conditions: for agonist activity (T release) after GPRC6A blockade: pre-incubation with anti-GPRC6A polyclonal antibodies 20 mg/mL, 30 minutes at 37 °C; for T release vs basal: 48 hours; for effect of SHBG pre-incubation on T release induced by SHBG141–161: then SHBG141–161 10^−11M
Procedure: Human ucOCN was obtained from chemical decarboxylation of cxOCN, purchased from Bachem AG (Bachem, Bubendorf, Switzerland), as previously described. For displacement experiments, an aliquot ucOCN underwent chemical biotinylation as previously described[9],[41]. Unliganded human SHBG was purchased by […], Belgium). Human chorionic gonadotropin Gonasi was purchased by IBSA Farmaceutici Srl (Italy). Mouse Leydig-carcinoma cell line MA-10 (passage number 3 to 8; ATCC®; RRID: CRL-1573) were cultured on 0,1% gelatin/PBS-coated plasticware according to the manufacturer's instructions and maintained in DMEM:F12 Medium (ATCC®; RRID: 30-2006; pH 7,4) supplemented with additional 20 mM HEPES and horse serum to a final concentration of 15%. For immunofluorescence experiments, cells were let attach on 0,1% gelatin/PBS-coated round-coverslips (ø 13 mm, Menzel-Gläser-VWR International Srl, Milan, Italy) and then washed and fixed with 4% paraformaldehyde/PBS solution at room temperature for 15 min. After membrane permeabilization with 1% Triton X/PBS solution for 10 min at room temperature, cells were saturated with 5% bovine serum albumin/5% normal donkey serum/PBS solution for 1 hour and then incubated with rabbit-polyclonal anti-mouse GPRC6A IgG (dilution 1:200; Santa Cruz Biotechnology Inc. Heidelberg Germany; RRID: sc-67302,) and goat-polyclonal anti-human INSL3 IgG (dilution 1:200; Santa Cruz Biotechnology Inc; RRID: sc-48550) at 4 °C overnight. After extensive washing, primary immunoreaction was detected by appropriate secondary reagent, respectively: biotin conjugated-anti rabbit IgG (dilution 1:100; Vector Laboratories, Peterborough, UK; RRID: BA-1000) followed by Streptavidin […], (dilution 1:100; GeneTex/Prodotti Gianni, Milano, Italy; RRID: GTX85907) and FITC conjugated-anti goat IgG (dilution 1:100; Abcam, Milan, Italy; RRID: ab6737). Samples were then counterstained with 4',6-diamidino-2-phenylindole (DAPI), mounted with anti-fade buffer and then analyzed with Video-Confocal (VICO) fluorescence microscope (Nikon, Firenze, Italy). […] RRID: KGE010) according to manufacturer's instructions. Receptor blockade experiments were performed by pre-incubating cultured cells with anti-GPRC6A polyclonal antibodies (final concentration of […]; Santa Cruz Biotechnology Inc; RRID: sc-67302) for 30 minutes at 37 °C as previously described.

β-TC6 cells = experiment: Insulin release from Langerhans β-TC6 cells (GPRC6A-mediated); assay type: cell-based, Mouse; conditions: for agonist activity (insulin release) after GPRC6A blockade: pre-incubation with anti-GPRC6A polyclonal antibodies 20 mg/mL, 30 minutes at 37 °C; for insulin release vs basal: 2 hours at 37 °C in 3 mM glucose/HBSS; for effect of SHBG pre-incubation on insulin release induced by SHBG141–161: then SHBG141–161 10^−11M
[3] = Far-UV circular dichroism; assay type: physicochemical; conditions: 25 °C, PBS (20 mM sodium phosphate, pH 7.4, 0.1 M NaCl), 70 μg/ml
Procedure: The conformational properties of SHBG141–161 were investigated by far-UV circular dichroism (CD) on a Jasco J-710 spectropolarimeter, equipped with a Peltier temperature control system. The molar concentration of the peptide was determined spectrophotometrically by recording the absorbace at 257 nm, using an absorptivity value for phenylalanine of 200 M-1·cm-1. CD spectra were recorded at 25 °C in a 1-mm pathlength quartz cell at a scan-speed of 10 nm/min, with a response time of 16 sec, and resulted from the average of two accumulations after baseline subtraction. CD signal was expressed as the mean residue ellipticity (θ) = θobs·MRW/(10·l·c), where θobs is the observed signal in degrees, MRW is the protein mean residue weight, l is the cuvette pathlength in cm, and c is the protein concentration in g/ml.

[4] = test system: extracellular domain of GPRC6A; conditions: previous study; immunoprecipitation assays; cited from earlier work
Source text: To this regard, our group recently reported that sex hormone-binding protein (SHBG), the major blood carrier of T, is able to bind the extrace ... || If on one hand these represent encouraging results about the reliability of GPRC6A as therapeutic target, on the other hand, drug peptides and biologics drown great interest for their favorable safety profile, target specificity and pharmacokinetics compared with traditional small-molecule drugs. To this regard, the metabotropic receptor GPRC6A has been widely investigated as the mediator of non-genomic effects of androgens.

[5] = SHBG141–161 concentrations greater than 10^−9 M, preliminary experiments, data not shown
[6] = SHBG 10^−14-10^−9M, any of the concentration tested
[7] = increasing SHBG, 1 hour at 37 °C

Molecule: calcium
- activation of GPRC6A (GPRC6A [1]): activated

Molecule: zinc
- activation of GPRC6A (GPRC6A [1]): activated

Molecule: magnesium
- activation of GPRC6A (GPRC6A [1]): activated

Molecule: ucOCN: Human ucOCN was obtained from chemical decarboxylation of cxOCN, purchased from Bachem AG (YLYQWLGAPVPYPDPLEPRREVCELNPDCDELADHIGFQEAYRRFYGPV; ends and bridges not checked; also: undercarboxylated by chemical decarboxylation of carboxylated OCN; UniProt P02818 52-100, looked up)
- membrane signal of labelled ucOCN alone, transfected cells (GPRC6A [2]; 1 nM labelled ucOCN, HEK-293 + GPRC6A): clear membrane signal associated with GPRC6A expression
- staining of labelled ucOCN, non-transfected cells (GPRC6A [2]; 1 nM labelled ucOCN, HEK-293 without GPRC6A): absence of significant staining in non-transfected cells
- agonist activity (T release) after GPRC6A blockade (MA-10 cells): completely abolished the agonist activity
- T release vs basal (MA-10 cells; ucOCN 0,5–2 nM): progressive and significant increase of T release
- agonist activity (insulin release) after GPRC6A blockade (β-TC6 cells): completely abolished the agonist activity
- insulin release vs basal (β-TC6 cells; ucOCN 0,5–2 nM): significant and dose dependent increase of insulin release

Molecule: N=C(N)NCCC[C@H](N)C(=O)O [L arginine]
- activation of GPRC6A (GPRC6A [1]): activated

Molecule: NCCCC[C@H](N)C(=O)O [L-lysine]
- activation of GPRC6A (GPRC6A [1]): activated

Molecule: IALGGLLFPASNLRLPLVPAL [SHBG141–161]
- competition with ucOCN for binding to GPRC6A (overall result) (GPRC6A [2]; 0, 10 nM and 100 nM SHBG141–161, 1 nM labelled ucOCN): progressive reduction of the signal for labelled ucOCN; also recorded: compete with ucOCN for the binding to GPRC6A; also recorded: partial competition activity
- staining signal for labelled ucOCN vs ucOCN alone (GPRC6A [2]; SHBG141–161 10 nM (10×)): significant reduction of the staining signal for ucOCN
- staining signal for labelled ucOCN vs ucOCN alone (GPRC6A [2]; SHBG141–161 100 nM (100×)): significant reduction of the staining signal for ucOCN
- T release vs basal (MA-10 cells; SHBG141–161, particularly 10^−13 to 10^−11M, five independent experiments): increase of T release
- T release at high concentration (MA-10 cells; [5]): not effective
- agonist activity (T release) after GPRC6A blockade (MA-10 cells): completely abolished the agonist activity
- insulin release vs basal (β-TC6 cells; SHBG141–161 10^−13 to 10^−10 M, five independent experiments): significant increased insulin levels in culture supernatants
- insulin release at high concentration (β-TC6 cells; [5]): not effective
- agonist activity (insulin release) after GPRC6A blockade (β-TC6 cells): completely abolished the agonist activity
- conformation by far-UV CD [3]: random or non-regular conformation
- far-UV CD minimum [3]: 200 nm

Molecule: C[C@]12CC[C@H]3[C@@H](CCC4=CC(=O)CC[C@@]43C)[C@@H]1CC[C@@H]2O [T, testosterone]
- non-genomic action mediated by GPRC6A (GPRC6A [1]): mediator of non-genomic action of T

B1: SHBG: Unliganded human SHBG was purchased by Affiland; the major blood carrier of T (protein, UniProt P04278 30-402, looked up)
Sex hormone-binding globulin: LRPVLPTQSAHDPPAVHLSNGPGQEPIAVMTFDLTKITKTSSSFEVRTWDPEGVIFYGDTNPKDDWFMLGLRDGRPEIQLHNHWAQLTVGAGPRLDDGRWHQVEVKMEGDSVLLEVDGEEVLRLRQVSGPLTSKRHPIMRIALGGLLFPASNLRLPLVPALDGCLRRDSWLDKQAEISASAPTSLRSCDVESNPGIFLPPGTQAEFNLRDIPQPHAEPWAFSLDLGLKQAAGSGHLLALGTPENPSWLSLHLQDQKVVLSSGSGPGLDLPLVLGLPLQLKLSMSRVVLSQGSKMKALALPPLGLAPLLNLWAKPQGRLFLGALPGEDSSTSFCLNGLWAQGQRLDVDQALNRSHEIWTHSCPQSPGNGTDASH
- effect of SHBG pre-incubation on T release induced by SHBG141–161 (MA-10 cells; SHBG 10^−12M, 1 hour at 37 °C): complete blunt of the secretory stimulating activity
- effect of SHBG pre-incubation on T release induced by SHBG141–161 (MA-10 cells; SHBG 10^−13M, 1 hour at 37 °C): significant reduction of T release; also recorded: significantly blunted
- induction of T release by SHBG alone (MA-10 cells; [6]): ineffective
- effect of SHBG pre-incubation on T release induced by hCG (MA-10 cells; SHBG, any of the concentration tested, 1 hour at 37 °C, then hCG 2,5 nM): negligible effect on T and insulin release
- effect of SHBG pre-incubation on T release induced by SHBG141–161 (MA-10 cells; [7]): progressive reduction of T and insulin release
- effect of SHBG pre-incubation on insulin release induced by SHBG141–161 (β-TC6 cells; SHBG 10^−12M, 1 hour at 37 °C): complete blunt of the secretory stimulating activity
- induction of insulin release by SHBG alone (β-TC6 cells; [6]): ineffective
- effect of SHBG pre-incubation on insulin release induced by IBMX/glucose (β-TC6 cells; SHBG, any of the concentration tested, 1 hour at 37 °C, then 15 mM glucose + 100 μM IBMX): negligible effect on T and insulin release
- effect of SHBG pre-incubation on insulin release induced by SHBG141–161 (β-TC6 cells; [7]): progressive reduction of T and insulin release
- binding to GPRC6A [4]: simple binding observed through immunoprecipitation assays; also recorded: able to bind the extracellular domain of GPRC6A

— publication PMC6923452, “SHBG141–161 Domain-Peptide Stimulates GPRC6A-Mediated Response in Leydig and β-Langerhans cell lines” (Scientific Reports, 2019)
